Assay results from patent publication US5166348A, “Bornyl and isobornyl esters of carboxylic acids of condensed tetrahydroquinoxalines” (Uralsky politekhnichesky institut, priority 1989, dated 1992).

Tested on: influenza virus strains resistant to remantadine
Assay type: in vivo
Details: chick embryos, 1 mg/embryo

`CC1=C(C(=O)OC2CC3CCC2(C)C3(C)C)C2Nc3ccccc3N(C)C2O1` (stereo not shown) [compound 1a, isobornyl ester of 2,9-dimethyl-3a,4,9,9a-tetrahydrofuro [2,3-b] quinoxaline-3-carboxylic acid] was tested, and the “sensitivity of strains resistant or only slightly sensitive to remantadine (in words)” value was “Some virus strains that are resistant or only slightly sensitive to remantadine were sensitive to the proposed compound 1a”.
